The values below come from US20070010477A1, “Acyl homoserine lactones for inhibition of cell growth” (priority 2005, published 2007).

Assay [1] relates to TS. Briefly: Western blot of TS protein down-regulation in H630 cells. The settings on record: for down-regulation of TS protein (activity in words): 18-20 hours after addition. Type of assay: cell-based, human. The protocol:
Conventional techniques were used to propagate and maintain the H630 and H630-1 cell lines (see, for example Dolnick, et al. (2003) Cancer Biology & Therapy, 2: 364-369; Stephanie, et al. (2001) In: Proceedings AACR, New Orleans, La., pp. 493). For the investigation of effects on TS expression, cells were extracted at 18-20 hours after the addition of AHLs. For Western blot analysis, proteins were extracted and Western blotting was performed by standard methods using blots blocked with 5% nonfat dried milk dissolved in 10 mM Tris-HCl, pH 8.0, 150 mM sodium chloride, 0.05% Tween-20. The blots were probed using either monoclonal (4D5E11) or polyclonal antibodies to TS and then probed for α-tubulin (monoclonal antibody B-5-1-2, Sigma Biochemicals) to confirm equivalent protein loading. The same blots were successively probed with anti-rTSβ or anti-TS, and finally anti-tubulin. After probing for each protein, the blots were stripped by incubation in 8 M guanidine HCl. Detection of rTS protein was performed with mouse monoclonal antibody D3, prepared against recombinant rTSβ protein. All Western blots were detected using the horseradish peroxidase-based West Pico Dura chemiluminescent substrate (Pierce) and horseradish peroxidase-coupled F(ab′)2 fragments (Jackson ImmunoResearch Laboratories, West Grove, Pa.) as secondary antibodies
These AHLs were synthesized as described previously (Chhabra, et al., 1993, J. Antibiotics 46, 441-454). For studies with the H630-1 cell line, AHLs were either dissolved in RPMI 1640 (hydroxy-butanoyl-, butanoyl-, 3-(oxo)-hexanoyl-homoserine lactones) or in dimethyl sulfoxide (DMSO) (hexanoyl-homoserine lactones) and added to mid-log H630 cells in RPMI1640 containing 10 μM methionine and 1× ITS+ culture supplement (BD Bioscience) in place of serum at the indicated concentrations. […] After 18 hr, the medium was removed, the cells washed twice and protein extracted. The extracted proteins were separated on denaturing polyacrylamide gels and probed for rTS, TS and tubulin using specific antibodies.
This embodiment describes the down regulation of TS by AHLs as a ftmction of time. H630 cells were incubated with medium containing 3-oxo-hexanoyl-L-HSL (3 mM) as described for Example 5. The extraction and analysis was also carried out as described in Example 5 at the indicated times after drug addition.
(§1) A variety of AHLs with acyl-chains containing 4- to 12-carbons (C4-C12) and 3-hydroxy or 3-keto substituents were prepared as described in Example 1 and analyzed for their effect on TS protein expression by Western blotting. Although several of the shorter chain AHLs (C4-C6) can cause loss of TS, the required concentrations are in the mM range. […] The latter observation indicates 3-oxo-C12-HSL has effects on gene expression aside from the down-regulation of TS. In this regard, FIG. 8C provides a photographic representation of the effect of 23 μmol/L 3-oxo-C12-HSL on TS mRNA levels in H630 cells (20 hours of exposure) as evaluated by RT-PCR. […] Microarray analysis of H630 RNA was done using the Affymetrix (Santa Clara, Calif.) HGU133A GeneChip. Microarray data was analyzed using Genetraffic software (Stratagene, La Jolla, Calif.) with the Robust Multichip Analysis method (Lauren et al., (2003) IEEE Trans Nanobioscience; 2:163-70) for measuring probe intensity and scaling. Results for treated and untreated cells were analyzed for significant changes within each experiment (P<0.05) as well as for changes in pooled data from three separate experiments. RNA for RT-PCR or microarray analysis was prepared using an RNAeasy kit from Qiagen (Valencia, Calif.).

The subject of the next assay is tubulin. Kind of assay: Western blot of tubulin in H630 cells. It counts as cell-based, human. The settings on record: FIG. 8B. The protocol: Conventional techniques were used to propagate and maintain the H630 and H630-1 cell lines (see, for example Dolnick, et al. (2003) Cancer Biology & Therapy, 2: 364-369; Stephanie, et al. (2001) In: Proceedings AACR, New Orleans, La., pp. 493). For the investigation of effects on TS expression, cells were extracted at 18-20 hours after the addition of AHLs. For Western blot analysis, proteins were extracted and Western blotting was performed by standard methods using blots blocked with 5% nonfat dried milk dissolved in 10 mM Tris-HCl, pH 8.0, 150 mM sodium chloride, 0.05% Tween-20. […] All Western blots were detected using the horseradish peroxidase-based West Pico Dura chemiluminescent substrate (Pierce) and horseradish peroxidase-coupled F(ab′)2 fragments (Jackson ImmunoResearch Laboratories, West Grove, Pa.) as secondary antibodies
A variety of AHLs with acyl-chains containing 4- to 12-carbons (C4-C12) and 3-hydroxy or 3-keto substituents were prepared as described in Example 1 and analyzed for their effect on TS protein expression by Western blotting. […] In this regard, FIG. 8C provides a photographic representation of the effect of 23 μmol/L 3-oxo-C12-HSL on TS mRNA levels in H630 cells (20 hours of exposure) as evaluated by RT-PCR. […]
A general note: In western blotting, separated proteins are transferred to a membrane and probed.

The next assay has as its system TS mRNA. Kind of assay: RT-PCR of TS mRNA levels in H630 cells. Type of assay: cell-based, human. The settings on record: 23 μmol/L, 20 hours of exposure. The protocol:
as §1, with “Calif.). […]” for “Calif.).”

Assay [2] addresses T1, TS (Homo sapiens, UniProt P04818).
T1 construct: effects of AHLs on TS and tubulin in H630 cells; endogenous in cells; host or cells: H630 human colon cancer cells
Kind of assay: TS modulation assay (luciferase mRNA containing TS binding elements) in H630 cells. Conditions: H630 cells treated with IC50 concentration. Type of assay: cell-based.

Assay [3] concerns H630 cells. Kind of assay: Growth inhibition, cells counted 3 days after addition. Type of assay: cell-based, human.
The test system of assay [4] is H630-1 cells. Described as above. It counts as cell-based, human.
A further assay concerns MCF-7 cells. Kind of assay: Growth inhibition. Type of assay: cell-based, human. Conditions: MCF-7 breast cancer cell line.
A further assay deals with NCI-H460. Briefly: Growth inhibition. Type of assay: cell-based, human. Conditions: NCI-H460 lung cancer cell line.
Another assay concerns H630-1. Briefly: Sulforhodamine-B growth inhibition assay, 5 days. The settings on record: H630-1 cells, SRB staining. It counts as cell-based, human. The protocol:
(§2) For growth inhibition assays described in this Example, H630, H630-1 and PC-3 (prostate cancer cells) cells were growth in the presence of HSL analog for 5 days. At the end of day 5, cells were fixed and stained with Sulforhodamine-B (SRB), a protein-staining dye. Excess SRB was removed leaving only dye bound to proteins from cells. Protein-bound SRB was then dissolved in base and quantified by spectrophotometric absorbance. In this assay, the amount of SRB bound to protein correlates with the number of cells present, allowing for the analysis of growth of treated versus untreated samples. The HSL analogs are administered at 10 concentrations, spanning a 5 log range.
(§3) The data points in the graphs of FIGS. 13A-13C represent % control growth at a given HSL analog concentration. IC50 values represent the concentration of HSL analog at which growth of the treated cells is inhibited by 50%. The structure of the tested compounds, designated by number, are as set forth in FIG. 13 from which it can be sent that the phenyl-HSL analogs tested range from C5 (compound 12) to C14 (compound 25). […] This effect decreases as the chain length reaches C14, as indicated by an increase in the IC50 values. […] Specifically, the C10 phenyl analog (compound 20) is equally as active as the 3-oxo-C12 HSL used as a positive control, despite having two fewer carbons in the alkyl chain.

The next assay deals with H630. Kind of assay: Sulforhodamine-B growth inhibition assay, 5 days. The settings on record: H630 cells, SRB staining. It counts as cell-based, human. The protocol: as §2, §3
For orientation: The SRB assay estimates cell density from bound dye.

The subject of assay [5] is PC-3 (prostate cancer cells). Briefly: Sulforhodamine-B growth inhibition assay, 5 days. It counts as cell-based, human. The settings on record: PC-3 cells, SRB staining. The protocol: as §2, §3
Assay [6] deals with H630 cells. Kind of assay: Colony formation assay. The settings on record: for enhancement of activity by 3-oxo-C12-HSL: colony formation, 23 μM 3-oxo-C12-HSL.
Assay [7] concerns H630-1 cells. Briefly: Colony formation assay. It counts as cell-based, human. Conditions: for enhancement of activity by 3-oxo-C12-HSL: colony formation, 8 μM 3-oxo-C12-HSL.

The structures appear in SMILES notation.

Usually IC50 stands for the concentration at which inhibition is half-maximal.

T1 sequence (P04818 whole entry): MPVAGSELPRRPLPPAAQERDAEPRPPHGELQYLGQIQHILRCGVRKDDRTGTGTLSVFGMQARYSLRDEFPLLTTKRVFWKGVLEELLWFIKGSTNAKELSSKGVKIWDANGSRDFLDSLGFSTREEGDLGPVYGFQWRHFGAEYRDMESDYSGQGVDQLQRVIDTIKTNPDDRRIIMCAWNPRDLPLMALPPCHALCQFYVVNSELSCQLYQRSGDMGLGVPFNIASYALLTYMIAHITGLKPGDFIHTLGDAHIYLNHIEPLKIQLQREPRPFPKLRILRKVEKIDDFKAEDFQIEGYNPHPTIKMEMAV

Consider `CCCCCCCCCC(=O)CC(=O)N[C@H]1CCOC1=O` [3-oxo-C12-HSL, 3-oxo-C12 homoserine lactone], for which the “concentration needed to reduce the amount of TS” value with TS [1] (FIG. 8B) lay in the range of 1 to 10 µM. In the assay on TS [1] (Western blot, FIG. 8B), the “lowest concentration causing down-regulation of TS” value turned out to be 10 µM. Besides, the “effect on tubulin with increasing concentrations” value in the assay with tubulin is “appears to decrease”. Besides, the “TS mRNA levels” value in the assay with TS mRNA is “unaffected”. Also, the “TS modulatory activity (luminescence)” value at TS [2] is given as “no detectable TS modulatory activity”. Further, the IC50 was determined as 23 µM with H630 cells [3] (3 days); 8 µM in the assay with H630-1 cells [4]; 16 µM in the assay with MCF-7 cells; 35 µM in the assay on NCI-H460; 12 µM in the assay on H630-1; 35 µM with H630. Also, the IC50 in [5] is 10 µM; in the assay with H630 cells [6] (read-out: IC50 for inhibition of cell growth in a clonogenic assay, H630 cells, FIG. 9B solid circles) it was about 10 µM. Besides, the “growth inhibition, relative activity of stereoisomer” value in the assay on H630 cells [3] (FIG. 9B) is “more active than the racemic mixture”.

In the case of `CCCCCC(=O)NC1CCOC1=O` (stereo not shown) [C6-(D)—HSL], the “down-regulation of TS protein (activity in words)” value in the assay with TS [1] (Western blot) is “inactive”.

Consider `CCCC(=O)CC(=O)N[C@H]1CCOC1=O` [Compound 3-oxo-C6-HSL, 3-oxo-N-hexanoyl-(L-)homoserine lactone], for which the “time for which the TS reduction is maintained” value in the assay on TS [1] (3 mM) was “approximately 24 hours”. Besides, the “reduction of TS levels” value in the assay on TS [1] (3 mM, after 16 hours) is “approximately 50%”. In addition, the “TS modulatory activity (luminescence)” value at TS [2] was “potent modulator of TS”.

As to `O=c1[nH]c(=O)n([C@@H]2O[C@H](CO)[C@@H](O)[C@H]2O)cc1F` [FUrd, 5-fluorouridine], the “enhancement of activity by 3-oxo-C12-HSL” value in the assay with H630 cells [6] (H630 cells) was “no enhancement”.

Regarding `CCCCCC(=O)NC1CCOC1=O` (racemic) [C6-HSL racemic mix, hexanoyl-homoserine lactone], in the assay with TS [1] (Western blot), the “down-regulation of TS protein (activity in words)” value is “less active”.

For the molecule `CCCCCCCCCCCC(=O)N[C@H]1CCOC1=O` [Compound C12-HSL], the “down-regulation of TS protein” value in the assay on TS [1] (at concentrations as high as 100 μM) is “inactive”. The IC50 with H630 cells [3] (FIG. 9B, read-out: IC50 growth inhibition) was determined as 1000 µM.

As for `CCCCCC(=O)N[C@H]1CCOC1=O` (single isomer, unassigned) [(L)-isomer of C6-HSL, N-hexanoyl (L-)-homoserine lactone], the “down-regulation of TS protein (activity in words)” value in the assay on TS [1] (Western blot) is on record as “active”.

For `CC(=O)O[C@H]1C(=O)[C@@]2(C)[C@H]([C@H](OC(=O)c3ccccc3)[C@]3(O)C[C@H](OC(=O)[C@H](O)[C@@H](NC(=O)c4ccccc4)c4ccccc4)C(C)=C1C3(C)C)[C@]1(OC(C)=O)CO[C@@H]1C[C@@H]2O` [taxol], the IC50 amounted to 0.02 µM in the assay on H630-1 cells [7] (Homo sapiens, FIG. 11E) and 0.006 µM in the assay on H630 cells [6] (Homo sapiens, NCI-H630, read-out: IC50 colony formation). Also, the “enhancement of activity by 3-oxo-C12-HSL” value in the assay with H630-1 cells [7] and with H630 cells [6] (H630 cells) was “some enhancement” in each case.

Take `CCCC(=O)CC(=O)OCC` [3-(oxo)-ethylhexanoate, reference compound]: the “down-regulation of TS protein (activity in words)” value in the assay on TS [1] (Western blot) was “inactive”.

As for `CN(Cc1cnc2nc(N)nc(N)c2n1)c1ccc(C(=O)N[C@@H](CCC(=O)O)C(=O)O)cc1` [methotrexate], the “enhancement of activity by 3-oxo-C12-HSL” value in the assay on H630 cells [6] (H630 cells) is listed as “not”.

As to `Cc1nc2ccc(CN(C)c3ccc(C(=O)N[C@@H](CCC(=O)O)C(=O)O)s3)cc2c(=O)[nH]1` [tomudex], in the assay on H630 cells [6] (H630 cells), the “enhancement of activity by 3-oxo-C12-HSL” value is listed as “enhancement”.

For `O=c1[nH]c(=O)n([C@H]2C[C@H](O)[C@@H](CO)O2)cc1F` [FUdR, fluorodeoxyuridine], the “enhancement of activity by 3-oxo-C12-HSL” value in the assay on H630 cells [6] (H630 cells) is given as “enhancement”.

On to `COc1cccc2c1C(=O)c1c(O)c3c(c(O)c1C2=O)C[C@@](O)(C(=O)CO)C[C@@H]3O[C@H]1C[C@H](N)[C@H](O)[C@H](C)O1` [adriamycin], for which the “enhancement of activity by 3-oxo-C12-HSL” value in the assay with H630 cells [6] (H630 cells) is given as “not”.

As to `O=c1[nH]cc(F)c(=O)[nH]1` [FU, 5-fluorouracil], the “enhancement of activity by 3-oxo-C12-HSL” value with H630-1 cells [7] is reported as “No enhancement”. In addition, the IC50 in the assay on H630 cells [6] (Homo sapiens, NCI-H630, 336 h, read-out: apparent IC50 of FU, FU alone) came out at 1 µM.
